# Source: US6428974B1, “Microplate for drug susceptibility testing containing a drug, a color reagent, and color suppressant” (Kanto Kagaku Kabushiki Kaisha, priority 1998, dated 2002)
# Experiments:
# [1] = tested on: Candida albicans ATCC 24433; test: Turbidity method (Japanese Society for Medical Mycology microdilution); assay type: cell-based; conditions: C. albicans ATCC 24433, range over repeated tests (n = 10); for MIC: Candida albicans, ATCC24433
# Experimental: (§1) For the comparison was used the 1.2% glucose MOPS buffered RPMI 1640medium and it was carried out according to the proposed method of Japanese Society for Medical Mycology (the microdilution method of 0.2 ml incubation system).
# [2] = tested on: Candida albicans ATCC 90028; test: as above; assay type: cell-based; conditions: C. albicans ATCC 90028, range over repeated tests (n = 10); for MIC: Candida albicans, ATCC90028
# Experimental: as §1
# Candida krusei ATCC 6258 [3] = test: as above; assay type: cell-based; conditions: C. krusei ATCC 6258, range over repeated tests (n = 10); for MIC: Pichia kudriavzevii, ATCC6258
# Experimental: as §1
# [4] = tested on: Candida parapsilosis ATCC 22019; test: as above; assay type: cell-based; conditions: C. parapsilosis ATCC 22019, range over repeated tests (n = 10); for MIC: Lodderomyces parapsilosis, ATCC22019
# Experimental: as §1
# [5] = tested on: Candida parapsilosis ATCC 90018; test: as above; assay type: cell-based; conditions: C. parapsilosis ATCC 90018, range over repeated tests (n = 7); for MIC: Lodderomyces parapsilosis, ATCC90018
# Experimental: as §1
# [6] = tested on: Candida tropicalis ATCC 750; test: as above; assay type: cell-based; conditions: C. tropicalis ATCC 750, range over repeated tests (n = 10); for MIC: Candida tropicalis, ATCC750
# Experimental: as §1
# [7] = tested on: Candida albicans ATCC 24433; test: Microplate method of the invention (WST-8 color reagent); assay type: cell-based; conditions: C. albicans ATCC 24433, range over repeated tests (n = 10), AMPH complete inhibition, 5-FC/FLCZ/MCZ IC80, 24 or 48 hrs, 35°C; for MIC: Candida albicans, ATCC24433
# Experimental: (§2) Four drugs of AMPH, 5-FC, FLCZ and MCZ were considered. The drug solution for the solid phase formation on the microplate was prepared as follows. The drug was dissolved in dimethylsulfoxide (DMSO) or diluted by using it. The solution was prepared so that it was AMPH 128 μg/ml, 5-FC 512 μg/ml, FLCZ 512 μg/ml or MCZ 256 μg/ml. By the use of the prepared drug the two fold dilution series was prepared in an appropriate concentration range with DMSO or water, and separately infused by 25 μl/well and formed into the dry and solid phase under vacuum (13.3-26.6 Pa) for 24 hrs. After the solid phase formation of the antifungal, the color reagent consisting of WST-8 0.7 mM, 1-methoxy PMS 3.5 μM, potassium ferricyanide 0.5 mM and potassium ferrocyanide 0.5 mM was separately infused by 20 μl/well and formed into the dry and solid phase under vacuum for 24 hrs.
# (§3) By using the colony within 24 hrs. in the incubation was prepared the fungal suspension with the sterile saline 5 ml. The fungal suspension corresponding to McFarland # 0.5 was prepared by measuring the absorbancy at the wave length of 530 nm. 0.1 ml of the prepared fungal suspension was taken by the micropipette, added to 0.9 ml of the 1.2% glucose MOPS buffered PRMI 1640 medium, and stirred thoroughly by the vortex-mixer, and then 0.1 ml of this was taken by the micropipette, added to 20 ml of the […] MOPS buffered PRMI 1640 medium, and stirred thoroughly by the vortex-mixer to prepare the replicated fungal suspension (0.5×10^3−2.5×10^3 cfu/ml). The replicated fungal suspension prepared was separately inoculated by 200 μl into each well of the microplate dryly fixed with the drug having the concentration gradient of the two fold dilution prepared in the above B. After lidding the plate the aerobic culture was done at 35±1° C. The absorbancy at 630 nm of the growth control (the testing fungal strains were incubated in the well wherein the antifungal agents and the color reagent was not formed into the solid phase) after the 24 hrs. incubation was measured.
# (§4) After stirring the microplate under shaking for 1 min., the absorbency of the dominant wave length 450 nm and the complementary wavelength 630 nm was measured, and the reading was carried out by the following method.
# (§5) 1. The minimum concentration showing the absorbancy in AMPH equal to or less than that in the negative control was made the minimum growth inhibition concentration (MIC).
# (§6) 2. The 80% growth inhibition concentration (IC 80) was read in 5-Fc, FLCZ and MCZ. The drug concentration of the well showing the absorbancy equal to or less than the absorbency obtained by the following equation was made MIC.
# (§7) (IC80=(positive control−negative control)×0.2 +negative control)
# [8] = tested on: Candida albicans ATCC 90028; test: as above; assay type: cell-based; conditions: C. albicans ATCC 90028, range over repeated tests (n = 10), AMPH complete inhibition, 5-FC/FLCZ/MCZ IC80, 24 or 48 hrs, 35°C; for MIC: Candida albicans, ATCC90028
# Experimental: as §2, §3, §4, §5, §6, §7
# Candida krusei ATCC 6258 [9] = test: as above; assay type: cell-based; conditions: C. krusei ATCC 6258, range over repeated tests (n = 10), AMPH complete inhibition, 5-FC/FLCZ/MCZ IC80, 24 or 48 hrs, 35°C; for MIC: Pichia kudriavzevii, ATCC6258
# Experimental: as §2, §3, §4, §5, §6, §7
# [10] = tested on: Candida parapsilosis ATCC 22019; test: as above; assay type: cell-based; conditions: C. parapsilosis ATCC 22019, range over repeated tests (n = 10), AMPH complete inhibition, 5-FC/FLCZ/MCZ IC80, 24 or 48 hrs, 35°C; for MIC: Lodderomyces parapsilosis, ATCC22019
# Experimental: as §2, §3, §4, §5, §6, §7
# [11] = tested on: Candida parapsilosis ATCC 90018; test: as above; assay type: cell-based; conditions: C. parapsilosis ATCC 90018, range over repeated tests (n = 7), AMPH complete inhibition, 5-FC/FLCZ/MCZ IC80, 24 or 48 hrs, 35°C; for MIC: Lodderomyces parapsilosis, ATCC90018
# Experimental: as §2, §3, §4, §5, §6, §7
# [12] = tested on: Candida tropicalis ATCC 750; test: as above; assay type: cell-based; conditions: C. tropicalis ATCC 750, range over repeated tests (n = 10), AMPH complete inhibition, 5-FC/FLCZ/MCZ IC80, 24 or 48 hrs, 35°C; for MIC: Candida tropicalis, ATCC750
# Experimental: as §2, §3, §4, §5, §6, §7
# [13] = tested on: Candida parapsilosis ATCC 22019; conditions: C. parapsilosis ATCC 22019; MIC acceptable range of NCCLS M27-A; cited from earlier work
# Candida krusei ATCC 6258 [14] = conditions: C. krusei ATCC 6258; MIC acceptable range of NCCLS M27-A; cited from earlier work
# [15] = tested on: Candida albicans ATCC 90028; conditions: C. albicans ATCC 90028; MIC acceptable range of NCCLS M27-A; cited from earlier work
# [16] = tested on: Candida albicans ATCC 24433; conditions: C. albicans ATCC 24433; MIC acceptable range of NCCLS M27-A; cited from earlier work
# [17] = tested on: Candida parapsilosis ATCC 90018; conditions: C. parapsilosis ATCC 90018; MIC acceptable range of NCCLS M27-A; cited from earlier work
# [18] = tested on: Candida tropicalis ATCC 750; conditions: C. tropicalis ATCC 750; MIC acceptable range of NCCLS M27-A; cited from earlier work
MIC [1] [µg/mL],MIC [2] [µg/mL],MIC (Candida krusei ATCC 6258 [3]) [µg/mL],MIC [4] [µg/mL],MIC [5] [µg/mL],MIC [6] [µg/mL],MIC [7] [µg/mL],MIC [8] [µg/mL],MIC (Candida krusei ATCC 6258 [9]) [µg/mL],MIC [10] [µg/mL],MIC [11] [µg/mL],MIC [12] [µg/mL],SMILES,MIC reference range [13] [µg/mL],MIC reference range (Candida krusei ATCC 6258 [14]) [µg/mL],MIC reference range [15] [µg/mL],MIC reference range [16] [µg/mL],MIC reference range [17] [µg/mL],MIC reference range [18] [µg/mL],other results
0.5 to 2,0.25 to 2,8 to 16,0.12 to 0.5,0.12,0.12,0.5 to 2,0.25 to 1,8 to 16,0.12 to 0.5,0.12,0.12,"Nc1[nH]c(=O)ncc1F [5-FC, Flucytosine]",0.12 to 0.5,4.0 to 16,0.5 to 2.0,1.0 to 4.0,0.12 to 0.25,0.12 to 0.25,
,,,,,,,,,,,,"C[C@@H]1[C@H](O)[C@@H](C)/C=C/C=C/C=C/C=C/C=C/C=C/C=C/[C@H](O[C@@H]2O[C@H](C)[C@@H](O)[C@H](N)[C@@H]2O)C[C@@H]2O[C@](O)(C[C@@H](O)C[C@@H](O)[C@H](O)CC[C@@H](O)C[C@@H](O)CC(=O)O[C@H]1C)C[C@H](O)[C@H]2C(=O)O [AMPH, Amphotericine B]",0.25 to 1.0,0.5 to 2.0,0.5 to 2.0,0.25 to 1.0,0.5 to 2.0,0.5 to 2.0,"MIC, Turbidity method [1]: 0.12 to 0.5 µg/mL; MIC, Turbidity method [2]: 0.12 to 0.5 µg/mL; MIC, Turbidity method (Candida krusei ATCC 6258 [3]): 0.12 to 0.5 µg/mL; MIC, Turbidity method [4]: 0.06 to 0.25 µg/mL; MIC, Turbidity method [5]: 0.12 to 0.25 µg/mL; MIC, Turbidity method [6]: 0.12 to 0.5 µg/mL; MIC, Method of the invention [7]: 0.12 to 0.5 µg/mL; MIC, Method of the invention [8]: 0.12 to 0.5 µg/mL; MIC, Method of the invention (Candida krusei ATCC 6258 [9]): 0.25 to 0.5 µg/mL; MIC, Method of the invention [10]: 0.12 to 1.0 µg/mL; MIC, Method of the invention [11]: 0.12 to 0.25 µg/mL; MIC, Method of the invention [12]: 0.12 to 0.5 µg/mL"
0.12 to 1,0.12 to 0.25,8 to 64,1 to 2,0.5,0.5 to 1,0.25 to 8,0.25 to 1,16 to 64,2 to 4,0.5 to 2,0.5 to 2,"OC(Cn1cncn1)(Cn1cncn1)c1ccc(F)cc1F [FLCZ, Fluconazole]",2.0 to 8.0,16 to 64,0.25 to 1.0,0.25 to 1.0,0.25 to 1.0,1.0 to 4.0,
0.06 to 0.5,0.06 to 0.12,0.25 to 1,0.25 to 0.5,0.06 to 0.25,0.12 to 1,0.06 to 1,0.06 to 0.12,0.25 to 1,0.5 to 1,0.12 to 0.5,0.25 to 2,"Clc1ccc(COC(Cn2ccnc2)c2ccc(Cl)cc2Cl)c(Cl)c1 (stereo not drawn) [MCZ, Miconazole]",,,,,,,
